Experimental data published in patent US10695347B2, “Pyrimidine derivative and use thereof” (Hubei Bio-Pharmaceutical Industrial Technological Institute …, priority 2015, dated 2020).
Read-outs that look alike come from different tables or passages of the source.

Tests used:
ALK = ALK (Homo sapiens (Human), UniProt Q9UM73); experiment: Inhibition of ALK kinase activity (Caliper mobility shift); assay type: biochemical
Description: (§1) Inhibition of Compound I Against ALK Kinase Activity
(§2) • I. Preparation of 1× kinase buffer and stop buffer
(§3) 1) 1× Kinase Buffer • 50 mM HEPES. pH 7.5 • 0.0015% Brij-35 • 10 mM MgCl2 • 2 mM DTT • 2) stop buffer • 100 mM HEPES, pH 7.5 • 0.015% Brij-35 • 0.2% Coating Reagent #3 • 50 mM EDTA
(§4) 2. Prepare a Compound Solution to be Tested • Step 2.1 Dilute the compound to 50× of the final desired highest inhibitor concentration in reaction by 100% DMSO. Transfer 100 μl of this compound dilution to a well in a 96-well plate. For example, if desired highest inhibitor concentration is 1 μM, then prepare 50 μM of compound DMSO solution in this step.
(§5) Step 2.2 Further dilute said compound dilution by 3-fold in series, thus obtain 10 concentrations.
(§6) Step 2.3 Add 100 μl of 100% DMSO to two empty wells for no compound control and no enzyme control in the same 96-well plate. Mark the plate as source plate.
(§7) Step 2.4 Prepare an intermediate plate
(§8) Transfer 10 μl of each compound from the source plate to a new 96-well plate as the intermediate plate.
(§9) Add 90 μl of 1× kinase buffer to each well of the intermediate plate. Mix the compounds in the intermediate plate for 10 min on a shaker.
(§10) Transfer 5 μl of each well from the 96-well intermediate plate to a 384-well plate in duplicate. For example, A1 of the 96-well plate is transferred to A1 and A2 of the 384-well plate. A2 of the 96-well plate is transferred to A3 and A4 of the 384-well plate, and so on.
(§11) 4.1 Prepare a 2.5× kinase solution
(§12) Add kinase in 1× kinase base buffer, thus obtain the 2.5× kinase solution.
(§13) 4.2 Prepare a 2.5× peptide solution
(§14) 4.3 In each well of the assay plate obtained in step 3, there was 5 μL of the compound in 10% DMSO.
(§15) 4.4 Transfer the 2.5× enzyme solution to the assay plate.
(§16) 4.5 Incubate at room temperature for 10 min.
(§17) 4.6 Transfer the 2.5× peptide solution to the assay plate.
(§18) 4.7 Kinase reaction and stop
(§19) Incubate at 28° C. for 20 min.
(§20) Add 25 μl of stop buffer to stop reaction.
(§21) Conversion rate of the kinase was read via the Caliper.
(§22) 6.1 Copy conversion data from Caliper program.
(§23) 6.2 Convert conversion values to inhibition values with the following formula: Percent inhibition=(max−conversion)/(max−min)*100
(§24) where “max” stands for DMSO control; and “min” stands for low control.
(§25) 6.3 Fit the data in XLfit excel add-in version 4.3.1 and obtain IC50 values according to the following formula: Y=Bottom+(Top−Bottom)/[…].

ALK L1196M = ALK L1196M (Homo sapiens (Human), UniProt Q9UM73, L1196M); experiment: Inhibition of ALK L1196M kinase activity (Caliper mobility shift); assay type: biochemical
Sequence of ALK L1196M (Q9UM73 19-1620 L1196M): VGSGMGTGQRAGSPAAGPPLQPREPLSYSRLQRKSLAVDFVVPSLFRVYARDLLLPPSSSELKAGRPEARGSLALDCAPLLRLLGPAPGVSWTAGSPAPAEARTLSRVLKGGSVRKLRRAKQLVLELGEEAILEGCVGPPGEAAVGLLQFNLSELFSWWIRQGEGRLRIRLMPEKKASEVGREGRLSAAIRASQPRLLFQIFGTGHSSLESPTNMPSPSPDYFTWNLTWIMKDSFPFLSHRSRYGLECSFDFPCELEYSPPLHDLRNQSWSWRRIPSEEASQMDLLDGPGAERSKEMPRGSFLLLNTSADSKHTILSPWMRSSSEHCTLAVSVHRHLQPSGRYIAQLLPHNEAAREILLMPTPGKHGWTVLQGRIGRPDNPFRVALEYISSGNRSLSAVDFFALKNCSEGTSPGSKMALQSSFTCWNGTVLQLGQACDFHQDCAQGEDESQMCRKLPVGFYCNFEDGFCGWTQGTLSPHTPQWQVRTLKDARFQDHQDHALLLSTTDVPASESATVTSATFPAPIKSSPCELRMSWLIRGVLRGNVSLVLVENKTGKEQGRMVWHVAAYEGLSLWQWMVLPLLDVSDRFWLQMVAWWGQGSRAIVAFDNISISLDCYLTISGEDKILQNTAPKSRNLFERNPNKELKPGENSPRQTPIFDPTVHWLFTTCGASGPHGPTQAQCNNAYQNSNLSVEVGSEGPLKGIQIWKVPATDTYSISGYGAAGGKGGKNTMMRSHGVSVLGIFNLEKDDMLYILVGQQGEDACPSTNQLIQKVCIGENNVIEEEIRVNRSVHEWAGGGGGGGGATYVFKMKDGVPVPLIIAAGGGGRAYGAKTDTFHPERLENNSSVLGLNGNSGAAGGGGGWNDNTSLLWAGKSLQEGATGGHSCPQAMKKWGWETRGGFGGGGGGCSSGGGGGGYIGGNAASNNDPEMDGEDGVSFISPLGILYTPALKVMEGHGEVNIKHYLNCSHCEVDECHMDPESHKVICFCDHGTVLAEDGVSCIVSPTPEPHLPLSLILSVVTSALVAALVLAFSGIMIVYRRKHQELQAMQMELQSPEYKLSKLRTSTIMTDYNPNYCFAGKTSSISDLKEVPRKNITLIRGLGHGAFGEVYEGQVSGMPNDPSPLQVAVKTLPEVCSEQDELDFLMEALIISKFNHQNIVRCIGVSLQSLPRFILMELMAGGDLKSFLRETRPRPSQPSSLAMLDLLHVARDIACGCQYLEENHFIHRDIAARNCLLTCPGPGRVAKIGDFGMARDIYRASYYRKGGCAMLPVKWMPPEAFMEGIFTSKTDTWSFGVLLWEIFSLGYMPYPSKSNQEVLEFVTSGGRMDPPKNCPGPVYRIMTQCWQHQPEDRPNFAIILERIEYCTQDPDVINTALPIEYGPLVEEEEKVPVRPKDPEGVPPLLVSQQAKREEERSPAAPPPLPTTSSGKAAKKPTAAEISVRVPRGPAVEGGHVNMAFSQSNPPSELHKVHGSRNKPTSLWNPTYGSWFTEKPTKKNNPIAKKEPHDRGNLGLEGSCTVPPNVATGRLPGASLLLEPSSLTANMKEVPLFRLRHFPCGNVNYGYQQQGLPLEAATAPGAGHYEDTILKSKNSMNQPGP
Description: as §1, §2, §3, §4, §5, §6, §7, §8, §9, §10, §11, §12, §13, §14, §15, §16, §17, §18, §19, §20, §21, §22, §23, §24, §25

Karpas299 cells = experiment: Suppression of Karpas299 cell proliferation (CellTiter-Glo); assay type: cell-based; conditions: 3 days incubation, read-out: Inhibition activity on Karpas299 cells IC50
Description: (§26) As the amount of ATP can indicate the number of living cells directly, the living cells in culture are able to be quantified by determining the ATP level. In our experiment, we use a living-cell testing kit to quantify the living cells, which utilizes UltraGlow luciferase to generate a stable glow signal in the presence of ATP which is produced by metabolism of living cells, such as respiration. Specifically, a reagent CellTiter-Glo™ was added into cell culture media, and then the luminescent intensity was determined to measure proliferation of cells, as the luminescent intensity is in direct proportion to the ATP level which correlates positively to the number of living cells. The test plate was tested with the Envision (PE).
Cell media: RPMI-1640 medium, fetal calf serum (FCS), antibiotics (Penicillin-Streptomycin)
Assay reagent: Cell Viability Assay Kit CellTiter-Glo
(§27) Others: a 96-well plate, a 384-well plate, DMSO
(§28) Step 3.1 Culturing test cells
Karpas 299 cells were plated into a black 384-well plate, with 2500 cells in 45 μl cell suspension per well. The plate was placed in a carbon dioxide incubator overnight.
(§29) Step 3.2 Preparation of the compounds to be tested
Each compound to be tested was dissolved in DMSO at 10 mM as the stock solution, which was left in a nitrogen-gas tank for storage.
After dilution of 10 μL stock solution (10 mM) into 2.5 mM as a starting working solution, 10 concentrations of the working solutions from 5 μM to 0.25 nM were obtained in duplicate by further dilution in 3-fold series with ECHO.
Step 3.3 Mixing the compound with the test cells
To each well of a new 96-well plate were added 49 μl medium and 1 μl of the compounds to be tested at individual working concentrations (10 concentrations in total). After oscillation,
5 μl of mixture in each well of the 96-well plate was transferred into corresponding wells in the 384-well plate in the step 3.1. The 384-well plate was incubated in the carbon dioxide incubator for 3 days.
To each well of the 384-well plate was added […] reagent Promega CellTiter-Glo. and incubated at room temperature for 10 minutes to stabilize the luminescence signal. The results were read with the PerkinElmer Envision Multi-mode Plate Reader.

Ba/F3 EML4-ALK cells = experiment: Suppression of Ba/F3 EML4-ALK cell proliferation (CellTiter-Glo); assay type: cell-based; conditions: 3 days incubation
Source text: Cell media: RPMI-1640 medium, fetal calf serum (FCS), antibiotics (Penicillin-Streptomycin), IL-3, puromycin
Cell line: Ba/F3 EML4-ALK
Assay reagent: Cell Viability Assay Kit Celliter-Glo
as §27
as §26, with “in medium” for “in culture”, “a cell viability assay” for “a living-cell testing”, “was assayed by” for “was tested with”
as §28
Ba/F3 EML4-ALK cells were planted into a 384-well plate, with almost 300 cells per well. The plate was placed in a carbon dioxide incubator overnight.
as §29
10 concentrations of the working solutions were obtained in duplicate by dilution in 3-fold series with BRAVO.
Step 3.3 Mixing the compound to be tested with the test cells
The compounds to be tested at individual working concentrations were transferred into corresponding wells in the 384-well plate in the step 3.1, with 5 μM as the initial working concentration, and then the 384-well plate was incubated in the carbon dioxide incubator for 3 days.
To each well of the 384-well plate was added the reagent Promega CellTiter-Glo, and incubated at room temperature for 10 minutes to stabilize the luminescence signal. The results were read by the PerkinElmer Envision Multi-mode Plate Reader.

Sequence of ALK (Q9UM73 19-1620): as the sequence (Q9UM73 19-1620 L1196M) above, with M1178L counted along it

| IC50 (Karpas299 cells) [nM] | IC50 (Ba/F3 EML4-ALK cells) [nM] | Compound | IC50 (ALK) [nM] | IC50 (ALK L1196M) [nM] | IC50 (Karpas299 cells; Homo sapiens, KARPAS-299, 72 h) [nM] | IC50 (Ba/F3 EML4-ALK cells; Ba/F3 EML4-ALK, 72 h) [nM] |
| --- | --- | --- | --- | --- | --- | --- |
| < 50 | < 20 | 5-chloro-N^2-(2-isopropoxy-5-methyl-4-(1,2,3,6-tetrahydropiperidin-4-yl) phenyl)-N^4-(2-isopropylsulfonyl) pyridin-3-yl) pyrimidine-2,4-diamine [Compound I-90] | 1 to 10 | 1 to 10 |  |  |
|  |  | COc1cc(N2CCOCC2)ccc1Nc1ncc(Cl)c(Nc2ccsc2S(=O)(=O)C(C)C)n1 [Compound I-1] |  |  | < 50 | < 20 |
|  |  | COc1cc(N2CCN(C)CC2)ccc1Nc1ncc(Cl)c(Nc2ccsc2S(=O)(=O)C(C)C)n1 [Compound I-2] |  |  | < 50 | < 20 |
|  |  | COc1cc(N2CCC(N(C)C)CC2)ccc1Nc1ncc(Cl)c(Nc2ccsc2S(=O)(=O)C(C)C)n1 [Compound I-3] |  |  | < 50 | < 20 |
|  |  | COc1cc(N2CCN(C)CC2)ccc1Nc1ncc(Cl)c(Nc2cccnc2S(=O)(=O)C(C)C)n1 [Compound I-5] | 1 to 10 | 1 to 10 | < 50 | < 20 |
|  |  | COc1cc(N2CCC(N(C)C)CC2)ccc1Nc1ncc(Cl)c(Nc2cccnc2S(=O)(=O)C(C)C)n1 [Compound I-6] | 1 to 10 | 1 to 10 | < 50 | < 20 |
|  |  | COc1cc(N2CCC(N3CCOCC3)CC2)ccc1Nc1ncc(Cl)c(Nc2cccnc2S(=O)(=O)C(C)C)n1 [Compound I-7] | 1 to 10 | 1 to 10 | < 50 | < 20 |
|  |  | COc1cc(N2CCC(N3CCOCC3)CC2)ccc1Nc1ncc(Cl)c(Nc2ccsc2S(=O)(=O)C(C)C)n1 [Compound I-8] |  |  | < 50 | < 20 |
|  |  | COc1cc(N2CCC(O)CC2)ccc1Nc1ncc(Cl)c(Nc2cccnc2S(=O)(=O)C(C)C)n1 [Compound I-9] | 1 to 10 | 1 to 10 | < 50 | 20 to 100 |
|  |  | COc1cc(N2CCC(N3CCN(C)CC3)CC2)ccc1Nc1ncc(Cl)c(Nc2cccnc2S(=O)(=O)C(C)C)n1 [Compound I-10] | 1 to 10 | 1 to 10 | < 50 | < 20 |
|  |  | COc1cc(N2CCC(N3CCN(C)CC3)CC2)ccc1Nc1ncc(Cl)c(Nc2ccsc2S(=O)(=O)C(C)C)n1 [Compound I-11] | 1 to 10 | 1 to 10 | < 50 | < 20 |
|  |  | COc1cc(N2CCC(N3CC(C)OC(C)C3)CC2)ccc1Nc1ncc(Cl)c(Nc2cccnc2S(=O)(=O)C(C)C)n1 (centres unmarked) [Compound I-12] | 1 to 10 | 1 to 10 | 50 to 100 | < 20 |
|  |  | COc1cc(N2CCN(C)CC2)ccc1Nc1ncc(Cl)c(Nc2ccccc2S(=O)(=O)C(C)C)n1 [Compound I-13] |  |  | < 50 | < 20 |
|  |  | COc1cc(N2CCC(N(C)C)CC2)ccc1Nc1ncc(Cl)c(Nc2ccccc2S(=O)(=O)C(C)C)n1 [Compound I-14] |  |  | < 50 | < 20 |
|  |  | COc1cc(N2CCC(N3CCC(N(C)C)CC3)CC2)ccc1Nc1ncc(Cl)c(Nc2ccccc2S(=O)(=O)C(C)C)n1 [Compound I-15] |  |  | 50 to 100 | < 20 |
|  |  | COc1cc(N2CCC(O)CC2)ccc1Nc1ncc(Cl)c(Nc2ccsc2S(=O)(=O)C(C)C)n1 [Compound I-16] |  |  | < 50 | < 20 |
|  |  | COc1cc(N2CCC(N3CC(C)OC(C)C3)CC2)ccc1Nc1ncc(Cl)c(Nc2ccccc2S(=O)(=O)C(C)C)n1 (centres unmarked) [Compound I-17] | 1 to 10 | 1 to 10 | < 50 | < 20 |
|  |  | COc1cc(N2CCC(N3CCC(N(C)C)CC3)CC2)ccc1Nc1ncc(Cl)c(Nc2ccsc2S(=O)(=O)C(C)C)n1 [Compound I-18] | 1 to 10 | 1 to 10 | < 50 | < 20 |
|  |  | COc1cc(N2CCN(C(C)C)CC2)ccc1Nc1ncc(Cl)c(Nc2cccnc2S(=O)(=O)C(C)C)n1 [Compound I-23] | 1 to 10 | 1 to 10 | < 50 | < 20 |
|  |  | COc1cc(C2=CCN(C(C)C)CC2)c(C)cc1Nc1ncc(Cl)c(Nc2cccnc2S(=O)(=O)C(C)C)n1 [Compound I-80, 5-chloro-N^2-(4-(1-isopropyl-1,2,3,6-tetrahydropyridin-4-yl)-2-methoxy-5-methylphenyl)-N^4-(2-(isopropylsulfonyl)pyridin-3-yl) pyrimidine-2,4-diamine] | 1 to 10 | 1 to 10 | < 50 | 20 to 100 |
|  |  | COc1cc(C2=CCNCC2)c(C)cc1Nc1ncc(Cl)c(Nc2cccnc2S(=O)(=O)C(C)C)n1 [Compound I-89] | 1 to 10 |  | 50 to 100 | < 20 |
|  |  | CC(C)S(=O)(=O)c1ccccc1Nc1nc(Nc2ccc(N3CCC(N(C)C)CC3)cc2OC(F)F)ncc1Cl [Compound I-95] |  |  | < 50 | 20 to 100 |
|  |  | COc1cc(CN2CCC(N(C)C)CC2)ccc1Nc1ncc(OC(F)F)c(Nc2ccccc2S(=O)(=O)C(C)C)n1 [Compound I-103] | 1 to 10 |  | 50 to 100 | < 20 |
|  |  | COc1cc(CN2CCC(N(C)C)CC2)ccc1Nc1ncc(Cl)c(Nc2cccnc2S(=O)(=O)C(C)C)n1 [Compound I-107] |  | 1 to 10 | 50 to 100 | 20 to 100 |
|  |  | CC(C)S(=O)(=O)c1ccccc1Nc1nc(Nc2ccc(N3CCC(N(C)C)CC3)cc2OC(F)F)ncc1OC(F)F [Compound I-114] |  |  | < 50 | < 20 |
